Experimental data: the NIST ThermoML archive (doi:10.1016/j.fluid.2014.05.032)

Assay: xn = mol fraction of the nth substance listed
Details: Liquid, Constant-volume piezometry

CCO [ethanol] + O
Details | mass density [kg/m3]
292.95 K, 2450 kPa, x1 = 0.073 | 974.2
292.95 K, 11320 kPa, x1 = 0.073 | 977.6
292.95 K, 21120 kPa, x1 = 0.073 | 981.2
292.95 K, 30930 kPa, x1 = 0.073 | 985
292.95 K, 39230 kPa, x1 = 0.073 | 988
297.05 K, 2490 kPa, x1 = 0.0163 | 990.8
297.05 K, 11280 kPa, x1 = 0.0163 | 993.5
297.05 K, 21070 kPa, x1 = 0.0163 | 997.5
297.05 K, 30810 kPa, x1 = 0.0163 | 1003.2
297.05 K, 39170 kPa, x1 = 0.0163 | 1006.1
298.15 K, 2560 kPa, x1 = 0.0946 | 965.8
298.15 K, 10120 kPa, x1 = 0.0946 | 968.6
298.15 K, 20060 kPa, x1 = 0.0946 | 972.4
298.15 K, 29980 kPa, x1 = 0.0946 | 976.1
298.15 K, 40030 kPa, x1 = 0.0946 | 979.8
298.35 K, 2590 kPa, x1 = 0.0343 | 984.1
298.35 K, 11280 kPa, x1 = 0.0343 | 987.9
298.35 K, 21300 kPa, x1 = 0.0343 | 991.9
298.35 K, 31040 kPa, x1 = 0.0343 | 995.7
298.35 K, 39150 kPa, x1 = 0.0343 | 998.6
323.15 K, 2570 kPa, x1 = 0.0163 | 980.6
323.15 K, 2610 kPa, x1 = 0.073 | 959.3
323.15 K, 2730 kPa, x1 = 0.0946 | 951.3
323.15 K, 10940 kPa, x1 = 0.073 | 962.8
323.15 K, 11140 kPa, x1 = 0.0946 | 954.9
323.15 K, 11390 kPa, x1 = 0.0163 | 984.4
323.15 K, 20710 kPa, x1 = 0.0946 | 958.8
323.15 K, 20790 kPa, x1 = 0.073 | 966.7
323.15 K, 21080 kPa, x1 = 0.0163 | 988.4
323.15 K, 30360 kPa, x1 = 0.073 | 970.6
323.15 K, 30890 kPa, x1 = 0.0163 | 992.3
323.15 K, 32400 kPa, x1 = 0.0946 | 963.3
323.15 K, 38480 kPa, x1 = 0.0163 | 995.2
323.15 K, 38600 kPa, x1 = 0.073 | 973.6
323.15 K, 39810 kPa, x1 = 0.0946 | 966.2
323.65 K, 2610 kPa, x1 = 0.0343 | 973.6
323.65 K, 11320 kPa, x1 = 0.0343 | 977.4
323.65 K, 21200 kPa, x1 = 0.0343 | 981.4
323.65 K, 30930 kPa, x1 = 0.0343 | 985.2
323.65 K, 39010 kPa, x1 = 0.0343 | 988.2
348.15 K, 2730 kPa, x1 = 0.0946 | 933.7
348.15 K, 3220 kPa, x1 = 0.0163 | 967.1
348.15 K, 3260 kPa, x1 = 0.0343 | 959.9
348.15 K, 3330 kPa, x1 = 0.073 | 943
348.15 K, 10980 kPa, x1 = 0.0163 | 970.6
348.15 K, 11060 kPa, x1 = 0.073 | 946.6
348.15 K, 11390 kPa, x1 = 0.0946 | 937.4
348.15 K, 11590 kPa, x1 = 0.0343 | 963.5
348.15 K, 20750 kPa, x1 = 0.0163 | 974.7
348.15 K, 20870 kPa, x1 = 0.073 | 950.8
348.15 K, 20870 kPa, x1 = 0.0946 | 941.6
348.15 K, 21160 kPa, x1 = 0.0343 | 967.5
348.15 K, 29500 kPa, x1 = 0.0163 | 978.3
348.15 K, 29730 kPa, x1 = 0.0946 | 945.4
348.15 K, 30400 kPa, x1 = 0.073 | 955
348.15 K, 30850 kPa, x1 = 0.0343 | 971.3
348.15 K, 37790 kPa, x1 = 0.0946 | 948.7
348.15 K, 39600 kPa, x1 = 0.073 | 958.9
348.15 K, 39860 kPa, x1 = 0.0343 | 974.7
348.15 K, 39910 kPa, x1 = 0.0163 | 982.3
373.15 K, 3330 kPa, x1 = 0.0946 | 908.6
373.15 K, 3370 kPa, x1 = 0.0163 | 950.2
373.15 K, 3390 kPa, x1 = 0.0343 | 942.1
373.15 K, 3510 kPa, x1 = 0.073 | 923.9
373.15 K, 11320 kPa, x1 = 0.0163 | 953.8
373.15 K, 11320 kPa, x1 = 0.073 | 927.7
373.15 K, 11390 kPa, x1 = 0.0946 | 912.8
373.15 K, 11470 kPa, x1 = 0.0343 | 945.9
373.15 K, 21080 kPa, x1 = 0.073 | 932.5
373.15 K, 21120 kPa, x1 = 0.0343 | 950.3
373.15 K, 21160 kPa, x1 = 0.0163 | 958.3
373.15 K, 21200 kPa, x1 = 0.0946 | 917.7
373.15 K, 30520 kPa, x1 = 0.0343 | 954.5
373.15 K, 30600 kPa, x1 = 0.0163 | 962.5
373.15 K, 30670 kPa, x1 = 0.073 | 937
373.15 K, 30850 kPa, x1 = 0.0946 | 922.3
373.15 K, 35700 kPa, x1 = 0.0163 | 964.6
373.15 K, 37230 kPa, x1 = 0.073 | 939.9
373.15 K, 39000 kPa, x1 = 0.0343 | 957.9
373.15 K, 39410 kPa, x1 = 0.0946 | 927.3
398.15 K, 3510 kPa, x1 = 0.0946 | 885.8
398.15 K, 3550 kPa, x1 = 0.0343 | 921.6
398.15 K, 3710 kPa, x1 = 0.0163 | 930.3
398.15 K, 3710 kPa, x1 = 0.073 | 901.9
398.15 K, 11430 kPa, x1 = 0.0946 | 890.4
398.15 K, 11510 kPa, x1 = 0.073 | 906.2
398.15 K, 11630 kPa, x1 = 0.0163 | 934.4
398.15 K, 11730 kPa, x1 = 0.0343 | 925.8
398.15 K, 21160 kPa, x1 = 0.073 | 911.4
398.15 K, 21200 kPa, x1 = 0.0946 | 896
398.15 K, 21360 kPa, x1 = 0.0163 | 939.3
398.15 K, 21530 kPa, x1 = 0.0343 | 930.7
398.15 K, 30790 kPa, x1 = 0.0163 | 943.7
398.15 K, 30790 kPa, x1 = 0.073 | 916.3
398.15 K, 30850 kPa, x1 = 0.0946 | 901.1
398.15 K, 30930 kPa, x1 = 0.0343 | 935.2
398.15 K, 37300 kPa, x1 = 0.0343 | 938.3
398.15 K, 39500 kPa, x1 = 0.073 | 920.7
398.15 K, 39610 kPa, x1 = 0.0946 | 905.3
398.15 K, 39890 kPa, x1 = 0.0163 | 948
423.15 K, 2680 kPa, x1 = 0.0163 | 906.7
423.15 K, 2680 kPa, x1 = 0.0343 | 897.3
423.15 K, 2750 kPa, x1 = 0.0946 | 860.1
423.15 K, 2760 kPa, x1 = 0.073 | 875.9
423.15 K, 10050 kPa, x1 = 0.0946 | 863.9
423.15 K, 10170 kPa, x1 = 0.0163 | 911
423.15 K, 10240 kPa, x1 = 0.0343 | 901.8
423.15 K, 10710 kPa, x1 = 0.073 | 881.1
423.15 K, 20110 kPa, x1 = 0.073 | 887.1
423.15 K, 20200 kPa, x1 = 0.0946 | 869.5
423.15 K, 20970 kPa, x1 = 0.0163 | 917
423.15 K, 21070 kPa, x1 = 0.0343 | 908.1
423.15 K, 30100 kPa, x1 = 0.0946 | 875.5
423.15 K, 30490 kPa, x1 = 0.073 | 893
423.15 K, 30570 kPa, x1 = 0.0163 | 922.4
423.15 K, 30640 kPa, x1 = 0.0343 | 913.4
423.15 K, 39560 kPa, x1 = 0.0163 | 927.2
423.15 K, 39680 kPa, x1 = 0.0343 | 918.2
423.15 K, 39860 kPa, x1 = 0.0946 | 882.2
423.15 K, 40110 kPa, x1 = 0.073 | 898.6
448.15 K, 3860 kPa, x1 = 0.0946 | 831.7
448.15 K, 3960 kPa, x1 = 0.0163 | 882.3
448.15 K, 4000 kPa, x1 = 0.073 | 849.3
448.15 K, 4080 kPa, x1 = 0.0343 | 872.1
448.15 K, 11550 kPa, x1 = 0.0946 | 837.9
448.15 K, 11920 kPa, x1 = 0.0163 | 887.5
448.15 K, 11960 kPa, x1 = 0.0343 | 877.7
448.15 K, 12160 kPa, x1 = 0.073 | 855.6
448.15 K, 21530 kPa, x1 = 0.0163 | 893.7
448.15 K, 21690 kPa, x1 = 0.073 | 862.7
448.15 K, 21690 kPa, x1 = 0.0946 | 845.8
448.15 K, 22180 kPa, x1 = 0.0343 | 884.2
448.15 K, 30990 kPa, x1 = 0.0946 | 852.6
448.15 K, 31010 kPa, x1 = 0.0343 | 889.8
448.15 K, 31050 kPa, x1 = 0.0163 | 899.4
448.15 K, 31170 kPa, x1 = 0.073 | 869.2
448.15 K, 37210 kPa, x1 = 0.073 | 873
448.15 K, 38340 kPa, x1 = 0.0163 | 903.5
448.15 K, 40060 kPa, x1 = 0.0343 | 894.8
448.15 K, 40140 kPa, x1 = 0.0946 | 858.6
